The values that follow come from patent US8932597B2 (priority 2008, dated 2015).

In this experiment the test system is anti-M2 human monoclonal antibody Z3G1. It is filed as binding.

Turning to “1350 (MSLLCEVGMCLCTCV; epitope peptide) [compound 1350]”, the “Signal (peptides that bind to Z3G1)” value is listed as 2664.

As for “1278 (MSLYTEVETPIRNEWGCRCN; epitope peptide) [compound 1278]”, the “Signal (peptides that bind to Z3G1)” value stood at 1313. For “1515 (CETPIRNEWGLLTEVETPICETPIRNEWG; epitope peptide; MISC_FEATURE (1)..(1): C is an attachment site for a CLIP; MISC_FEATURE (10)..(10): G is an attachment site for a CLIP; MISC_FEATURE (11)..(11): L is an attachment site for a CLIP; MISC_FEATURE (29)..(29): G is an attachment site for a CLIP) [compound 1515]”, the “Signal (peptides that show specific binding to Z3G1)” value is on record as 2427. For the substance “1312 (MSLLTEVEWPIRNEWGCRCN; epitope peptide) [compound 1312]”, the “Signal (peptides that bind to Z3G1)” value is 2541. Take “1442 (CLTEVETPIRLLTEVETPICLTEVETPIR; epitope peptide; MISC_FEATURE (1)..(1): C is an attachment site for a CLIP; MISC_FEATURE (10)..(10): R is an attachment site for a CLIP; MISC_FEATURE (11)..(11): L is an attachment site for a CLIP; MISC_FEATURE (29)..(29): R is an attachment site for a CLIP) [compound 1442]”: the “Signal (peptides that bind to Z3G1)” value is 2057. Same read-out and setting: the result for “1322 (MCLLTEVECPIRNE; epitope peptide) [compound 1322]” reads 2421. For “1585 (SLLKEVETPIRNEWGCRCNDSSD; epitope peptide) [compound 1585]”, the “Signal (peptides that show specific binding to Z3G1)” value stood at 2611. With “1330 (MSLLCEVECPIRNE; epitope peptide) [compound 1330]”, the “Signal (peptides that bind to Z3G1)” value is recorded as 2606.

Consider “1390 (SLLCEVETPIRCEWG; epitope peptide) [compound 1390]”, for which the “Signal (peptides that bind to Z3G1)” value is 2601. Same read-out and setting: then “1259 (MMLLTEVETPIRNEWGCRCN; epitope peptide) [compound 1259]”, with 2666.

As for “1568 (ILLTEVETPIRNEWGCRCNDSSD; epitope peptide) [compound 1568]”, the “Signal (peptides that show specific binding to Z3G1)” value came out at 1044. As for “1481 (CVETPIRNEWLLTEVETPICEVETPIRNE; epitope peptide; MISC_FEATURE (1)..(1): C is an attachment site for a CLIP; MISC_FEATURE (10)..(10): W is an attachment site for a CLIP; MISC_FEATURE (11)..(11): L is an attachment site for a CLIP; MISC_FEATURE (29)..(29): E is an attachment site for a CLIP) [compound 1481]”, the “Signal (peptides that bind to Z3G1)” value was 1592. The same measure, in the same setting: then “1321 (MCLLTEVETCIRNE; epitope peptide) [compound 1321]”, with 1948; and “1264 (MVLLTEVETPIRNEWGCRCN; epitope peptide) [compound 1264]”, with 2465. On the same count and under the same terms, the result for “1294 (MSLLVEVETPIRNEWGCRCN; epitope peptide) [compound 1294]” reads 2732. Take “1566 (GLLTEVETPIRNEWGCRCNDSSD; epitope peptide) [compound 1566]”: the “Signal (peptides that show specific binding to Z3G1)” value is 2321.

Consider “1461 (CVETPIRNEWLLTEVETPICTEVETPIRN; epitope peptide; MISC_FEATURE (1)..(1): C is an attachment site for a CLIP; MISC_FEATURE (10)..(10): W is an attachment site for a CLIP; MISC_FEATURE (11)..(11): L is an attachment site for a CLIP; MISC_FEATURE (29)..(29): N is an attachment site for a CLIP) [compound 1461]”, for which the “Signal (peptides that bind to Z3G1)” value stood at 1835. Same read-out and setting: the result for “1374 (SLLTEVETPIRNECGC; epitope peptide) [compound 1374]” reads 1660.
